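Step 1: Grow cells in 96-well plates. Step 2: Expose to compound for 48 hours at 5 concentrations. Step 3: Interpolate endpoints linearly; if unreached, use highest concentration. TGI is the concentration that stops growth completely.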
test system: SN12K1 renal; assay: inhibition of tumour cell growth, NCI panel, 48 h

Row | Structure (SMILES) | TGI
1 | COC1C(OC(=O)/C=C/C=C/C=C/C=C/C(=O)O)CCC2(CO2)C1C1(C)OC1CC=C(C)C (stereo not drawn) | > 100 µM
2 | COc1ccc2c(c1[N+](=O)[O-])CC[C@@H]1[C@@H]2CC[C@]2(C)C(=O)CC[C@@H]12 | > 25 µM
3 | CN(C)CCN1C(=O)c2cccc3cc(N)cc(c23)C1=O | 7.43 µM

From PubChem BioAssay (NCI)
